Tests used:
[1] = Example 1: body weight and feed efficiency of piglets treated before weaning; format: in vivo; conditions: for improvement of (average) body weight: gilts (female pigs), intramuscular; for improvement of (average) body weight / higher body weight relative to control animals: P<0.01; for higher body weight than the controls at day 35 of the study: P<0.05; for higher body weight relative to control animals: MET fed orally one week before and 24 hours before weaning
Description: (§1) In a study, a total of 64 piglets (32 gilts [females] and 32 barrows [castrated males]) with initial body weight (BW) of 4.8±0.7 Kg were assigned to four treatments. Treatments were in a 4×2 factorial arrangement with a completely randomized design with two main factors: (I) control (Con), two levels of cortisol agonist (Dexamethasone; DEX; subdivided into 2 dosage levels: DEXA and DEXB), or cortisol antagonist (Metyrapone; MET), and (II) gender (gilt vs. barrow). See Table at FIG. 9, for a summary of the list of the treatments, drug dosage, and number of the animals per treatment. Dexamethasone was injected intramuscular at dosages shown, while Metyrapone was mixed with applesauce and fed to the animals with a syringe. The study lasted for 5 weeks. It began one week before weaning (14-day old piglets), and continued 4 weeks after the weaning. Pigs were weaned at the age of 21-days. Piglets received the treatments either orally via diet or by intra-muscular injection one week before and again 24 hours before weaning. Blood samples were collected by venipuncture of the jugular vein on day 14, 20, 21, 22, 23, 24, 26, 28, and 35 of age. Serum cortisol was determined using a commercial kit. Feed intake, average daily gain, feed efficiency, and mortality/morbidity was determined. Body weights (body mass) of the animals were measured on a daily basis for a week after weaning, and then on a weekly basis until the end of the study. See, FIGS. 2 and 3.

[2] = Example 2: body mass, daily gain, feed intake and gain-to-feed of weaned gilts; format: in vivo, piglets; conditions: weaned pigs; 0.2 mg/kg intramuscular
Description: In this test, eighteen gilts (of commercially relevant genetics) were weaned at 23±2 days of age. These were housed in floor pens (3 pigs per pen), and assigned to 3 treatments: (1) unweaned suckling that received saline but no cortisol agonist (UWS), (2) weaning that received only saline (WS), and (3) weaning that received the cortisol agonist (WC). The piglets of Group (3) received a cortisol agonist (0.2 mg dexamethasone per kg of body mass) via intramuscular injection on the day before commencing weaning, and day 3 post-weaning. Those of Groups (1) and (2) received instead only a saline solution intra-muscular injection at the same time intervals. Body mass (BW) was monitored daily, and average daily mass gain (ADG) and mass of feed intake (ADFI) were measured and/or estimated for the course of the study. […] Data was analyzed using mixed procedures in SAS (PROC MIXED). Repeated measure analysis of variance was used for the parameters that were measured over time.

[3] = Example 1: serum cortisol in piglet blood samples (commercial kit); format: in vivo, piglets; conditions: 24 h after weaning; P>0.05
Description: as §1, with “Blood samples were collected by venipuncture of the jugular vein on day 14, 20, 21, 22, 23, 24, 26, 28, and 35 of age.” left out, “See, FIGS. 2 and 3.” left out

Compound	effect on body weight ([1]; barrows, anti-inflammatory dose, P>0.05)	improvement of (average) body weight ([1]; DEXA dose (anti-inflammatory))	improvement of (average) body weight ([1]; DEXB dose (immunosuppressive))	improvement of (average) body weight ([1]; DEXB dose (immunosuppressive), listed as dexamethasone)	higher body weight than the controls at day 35 of the study ([1]; gilts, DEXA dose, day 35)	higher body weight than the controls at day 35 of the study ([1]; gilts, DEXB dose, day 35)	effect on ADFI (mass of feed intake) [2]	effect on ADG (average daily mass gain) [2]	increase of average body weight of the piglets ([1]; all piglets, average over the course of the study)	higher body weight relative to control animals ([1]; barrows)	effect on body weight of piglets at day 35 of the study ([1]; day 35)	higher body weight relative to control animals ([1]; gilts)	effect on serum cortisol levels [3]
C[C@@H]1C[C@H]2[C@@H]3CCC4=CC(=O)C=C[C@]4(C)[C@@]3(F)[C@@H](O)C[C@]2(C)[C@@]1(O)C(=O)CO [Dexamethasone]	no effect	9.3%	4.1%	4.4%	13%	12%	no effect	no effect					
CC(C)(C(=O)c1cccnc1)c1cccnc1 [MET, Metyrapone]									3.4%	3%	no effect	4%	Neither MET nor DEX had an effect

Source: patent publication US20160296536A1, “Administration of Glucocorticoid Steroids to Livestock” (Animal Biotech, LLC, priority 2015, published 2016)
